Assay results: patent publication US12552806B2, “Androgen receptor regulation by small molecule enantiomers” (University of Southern California, priority 2020, dated 2026)
Positions count from the first letter of the chain named. “Also recorded” adds a separate entry of the source. Read-outs that look alike come from different tables or passages of the source.

How the values were obtained:
VCaP cells = assay: VCaP viability assay (CellTiter-Glo); format: cell-based; conditions: for IC50: Homo sapiens, VCaP
Protocol: (§1) PC3 and VCaP cell lines were obtained from ATCC and cultured as recommended. Generation and culture of PC3 GFP-AR cells were described previously (14). ARE-luciferase cells were generated using Cignal Lenti AR Reporter (Qiagen). Cell lines were authenticated using NIST-approved short tandem repeat DNA profiling and tested negative for mycoplasma. Drug treatments were conducted after overnight culture in phenol red-free media supplemented with charcoal:dextran stripped FBS.
Luminometer Assays. For ARE-luciferase, luciferase substrate was added to lysed cells after 24-h treatment. For viability, cells were lysed with CellTiter-Glo 3D Cell Viability Assay (Promega) after 6 d of treatment. Measurements were performed in 96-well plates (Corning) using a GloMax 96 Microplate Luminometer (Promega).

AR T878A = biological target: T1, AR T878A (Homo sapiens, UniProt P10275, T878A); assay: cell-based; format: cell-based
T1 construct: LNCaP cells expressing AR T878A; endogenous in cells; host or cells: LNCaP-luc (LNCaP stably carrying the Cignal Lenti AR Reporter)
T1 sequence (P10275 1-920 T878A): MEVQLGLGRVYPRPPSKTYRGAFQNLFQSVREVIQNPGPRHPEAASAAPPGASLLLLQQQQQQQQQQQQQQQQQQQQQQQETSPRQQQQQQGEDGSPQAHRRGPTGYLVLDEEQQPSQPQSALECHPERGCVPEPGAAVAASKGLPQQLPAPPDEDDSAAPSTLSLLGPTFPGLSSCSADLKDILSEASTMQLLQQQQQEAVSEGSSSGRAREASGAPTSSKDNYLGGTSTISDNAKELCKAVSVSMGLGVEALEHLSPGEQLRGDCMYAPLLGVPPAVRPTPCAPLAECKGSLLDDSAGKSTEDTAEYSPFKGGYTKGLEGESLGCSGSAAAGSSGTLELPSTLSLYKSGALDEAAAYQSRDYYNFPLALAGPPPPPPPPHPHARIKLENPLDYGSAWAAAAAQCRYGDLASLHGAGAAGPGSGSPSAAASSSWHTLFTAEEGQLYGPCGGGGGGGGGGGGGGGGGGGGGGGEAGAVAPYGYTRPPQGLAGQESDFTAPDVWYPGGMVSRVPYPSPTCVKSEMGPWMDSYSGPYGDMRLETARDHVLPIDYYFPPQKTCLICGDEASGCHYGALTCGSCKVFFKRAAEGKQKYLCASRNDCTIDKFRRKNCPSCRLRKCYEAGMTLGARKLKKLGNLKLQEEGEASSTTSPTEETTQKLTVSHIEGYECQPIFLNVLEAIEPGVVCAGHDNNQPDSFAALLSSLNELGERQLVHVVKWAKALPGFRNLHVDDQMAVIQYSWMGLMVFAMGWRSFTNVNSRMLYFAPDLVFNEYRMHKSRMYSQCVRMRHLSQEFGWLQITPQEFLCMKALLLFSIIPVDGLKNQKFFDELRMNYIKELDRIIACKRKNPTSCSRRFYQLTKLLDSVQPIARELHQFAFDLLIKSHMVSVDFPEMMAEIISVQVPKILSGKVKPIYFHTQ
From the text: We generated a LNCaP cell line stably expressing luciferase controlled by androgen response elements (ARE-luciferase).
Cell Culture and Treatments. The LNCaP cell line were obtained from ATCC, cultured in RPMI1640 (Corning) supplemented with 10% heat-inactivated GemCell bovine serum (Gemini Bio-Products) and Penicillin-Streptomycin (Gemini Bio-Products). Cell lines stably expressing ARE-luciferase (LNCaP-luc) was generated using Cignal Lenti AR Reporter (Qiagen) and was continuously cultured with 500 ng/mL Puromycin (Gibco) for positive selection. Cells were maintained at 37° C. in a humidified incubator with 5% carbon dioxide. All cell lines were authenticated using NIST approved short tandem repeat (STR) DNA profiling performed by the University of Arizona Genetics Core and routinely tested negative for mycoplasma.
Luciferase assay. LNCaP-luc cells were seeded in clear flat bottom white polystyrene 96-well plates (Corning) at a density of 12,000 cells/well. […] Dose-response curves were fit using the delta method and t-distribution (n=1). Compounds are tested up to 10 μM.

AR = biological target: T2, AR (Rattus norvegicus, UniProt P15207); assay: AR binding, PolarScreen AR Competitor Assay (fluorescence polarization)
T2 construct: purchased Thermo Fisher Scientific
T2 sequence (P15207 646-902 limits assumed): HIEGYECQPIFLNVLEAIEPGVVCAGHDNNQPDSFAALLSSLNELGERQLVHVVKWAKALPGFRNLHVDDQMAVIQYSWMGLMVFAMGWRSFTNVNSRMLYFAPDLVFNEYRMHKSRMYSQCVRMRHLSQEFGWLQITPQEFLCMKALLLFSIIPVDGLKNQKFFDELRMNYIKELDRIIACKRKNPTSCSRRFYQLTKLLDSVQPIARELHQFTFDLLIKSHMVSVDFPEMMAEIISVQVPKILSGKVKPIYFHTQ
Protocol: AR Binding. Ligand binding was analyzed using the PolarScreen AR Competitor Assay Kit, Green, according to the manufacturer's instructions (Thermo Fisher Scientific). Fluorescence polarization was measured after a 4-h incubation using an EnVision 2103 Multilabel Plate Reader (PerkinElmer).

[1] = Microsome stability assay; format: in vitro ADME, human; conditions: for toxic metabolite BMS-501949 detected in LCMS: 8 h incubation, o-fluoro-BMS-501949 for EITM-1707
Protocol: Microsome stability assays. In vitro metabolism was determined as described previously. Specifically, to measure metabolism of parent compounds, the higher throughput protocol was applied, in which 0.5 mg/ml pooled human liver microsomes (Sigma) were mixed with 1 μM drugs and phosphate buffer (0.1 M, pH 7.4) in 96-well plates. Enzymatic reactions were started by adding 1 mM NADPH (Sigma Aldrich) followed by incubation at 37° C. Fractions were quenched by transfer to ice-cold acetonitrile after the indicated incubation times. Samples were analyzed using liquid chromatography-mass spectrometry (LC/MS-MS). Rates of intrinsic clearance were determined from the amount of the parent compound consumed per min per mg of microsomal protein as described previously. To analyze accumulating metabolites, the basic protocol was used, and microsomes were incubated with 10 μM drugs for 8 h.

LNCaP cells = assay: LNCaP cell viability assay (CellTiter-Glo); format: cell-based; conditions: 1 and 10 μM drug + 60 pM R1881, 5 days
Protocol: LNCaP cell viability assay. Cells were seeded into 96-well fibronectin coated (1 ug/cm^2) plates (CellCarrier, PerkinElmer) at a density of 5,000 cells/well. […] Drug-treated cells were lysed with CellTiter-Glo 3D Cell Viability Assay (Promega) and transferred to white 96-well plates (Corning). Luminescence was measured utilizing GloMax 96 Microplate Luminometer (Promega). Analysis was conducted in the R statistical environment (v 3.6.0). […] Visualizations were facilitated by the ggplot2 package (v3.2.1), with standard error (S.E.) shown where appropriate.

GFP-AR = biological target: T3, GFP-AR (Homo sapiens, UniProt P10275); assay: Confocal microscopy of PC3 GFP-AR cells (nuclear hyperspeckling); format: cell-based; conditions: 10 μM enantiomer 180 min, 1 nM R1881 90 min
T3 construct: expressed in transfected cells; host or cells: PC3
T3 sequence (P10275 1-920): T1 sequence (P10275 1-920 T878A) with A878T
Protocol: Initial compound testing was performed with PC3 GFP-AR cells and confocal microscopy. First, we tested purified BMS enantiomers (FIG. 6A).
as §1
Confocal Microscopy. PC3 GFP-AR cells were seeded and stained overnight with SiR-DNA ([…]).

SMILES: C[C@]12O[C@](C)(C[C@H]1NC(=O)c1c[nH]c3ccccc13)[C@H]1C(=O)N(c3ccc(C#N)c(C(F)(F)F)c3)C(=O)[C@H]12 [(R)-1720]
- IC50 (VCaP cells): 160 nM

SMILES: CCS(=O)(=O)Nc1ccc2c(c1)C(=O)N(c1ccc(C#N)c(C(F)(F)F)c1)C2=O [EITM-1708, N-(2-(4-cyano-3-(trifluoromethyl)phenyl)-1,3-dioxoisoindolin-5-yl)ethanesulfonamide]
- ED50 (AR T878A): No binding
- Emax (AR T878A): No binding
- binding to AR in vitro, in words (AR): did not bind to AR

SMILES: C[C@]12O[C@](C)(C[C@H]1n1cc(CCO)nn1)[C@H]1C(=O)N(c3ccc(C#N)c(C(F)(F)F)c3)C(=O)[C@H]12 [EITM-1706, 4-((3aR,4R,5R,7R,7 aS)-5-(4-(2-hydroxyethyl)-1H-1,2,3-triazol-1-yl)-4,7-dimethyl-1,3-dioxooctahydro-2H-4,7-epoxyisoindol-2-yl)-2-(trifluoromethyl)benzonitrile]
- ED50 (AR T878A): No binding
- Emax (AR T878A): No binding
- binding to AR in vitro, in words (AR): did not bind to AR

SMILES: C[C@]12O[C@](C)(C[C@H]1NC(=O)c1cc[nH]n1)[C@H]1C(=O)N(c3ccc(C#N)c(C(F)(F)F)c3)C(=O)[C@H]12 [EITM-1702, N-((3aR,4R,5R,7R,7aS)-2-(4-cyano-3-(trifluoromethyl)phenyl)-4,7-dimethyl-1,3-dioxooctahydro-1H-4,7-epoxyisoindol-5-yl)-1H-pyrazole-3-carboxamide]
- R1881-induced growth, in words (VCaP cells; 10 μM drug + 1 nM R1881, 6-d treatment): visibly suppressed R1881-induced growth
- (S)-enantiomer fraction that halved the drug effect, cell viability (VCaP cells; 10 μM mixture + 1 nM R1881, 6 d, 95% CI (0.2%, 0.4%)): 0.3%
- (S)-enantiomer fraction that rescued the proliferation phenotype, cell viability (VCaP cells; 10 μM mixture + 1 nM R1881, 6 d, 95% CI (0.7%, 3.7%)): 2.2%
- IC50 (VCaP cells): 540 nM
- toxic metabolite BMS-501949 detected in LCMS ([1]; 10 μM drug): not detected
- toxic metabolite BMS-501949 detected in LCMS ([1]; 10 μM drug, listed as (R)-EITM-1702): no
- active metabolite detected in LCMS ([1]; Unnamed metabolite (predicted active) for EITM compounds, BMS-570511 for BMS-641988, 10 μM drug, 8 h): yes
- half-life at 1 μM ([1]; human, pooled human liver microsomes, pH 7.4, liver microsomes, 1 μM drug, read-out: T½): 56.7 min
- microsomal CLint at 1 μM ([1]; human, pooled human liver microsomes, pH 7.4, liver microsomes, read-out: rate of intrinsic clearance): 15.3 µL/min/mg
- AR agonism / antagonism in LNCaP ARE-luciferase, in words (AR T878A): robust antagonistic activities without notable agonism
- EC50 (AR T878A): 570 nM
- Emax (AR T878A; LNCaP): 8%
- LNCaP proliferation / viable cells, in words (LNCaP cells): almost phenocopying castrate conditions; also recorded: inhibited the growth of LNCaP prostate cancer cells

SMILES: C[C@]12O[C@](C)(C[C@H]1NC(=O)c1cc(-c3cccs3)[nH]n1)[C@H]1C(=O)N(c3ccc(C#N)c(C(F)(F)F)c3)C(=O)[C@H]12 [EITM-1710, N-((3aR,4R,5R,7R,7aS)-2-(4-cyano-3-(trifluoromethyl)phenyl)-4,7-dimethyl-1,3-dioxooctahydro-1H-4,7-epoxyisoindol-5-yl)-5-(thiophen-2-yl)-1H-pyrazole-3-carboxamide]
- EC50 (AR T878A): 2430 nM
- Emax (AR T878A; LNCaP): 8%
- binding to AR in vitro, in words (AR): appeared to accommodate

SMILES: CCS(=O)(=O)N[C@H]1C[C@]2(C)O[C@@]1(C)[C@H]1C(=O)N(c3ccc(C#N)c(C(F)(F)F)c3)C(=O)[C@H]12 [(S)-BMS, N-((3aS,4S,5S,7S,7aR)-2-(4-cyano-3-(trifluoromethyl)phenyl)-4,7-dimethyl-1,3-dioxooctahydro-1H-4,7-epoxyisoindol-5-yl)ethanesulfonamide]
- nuclear hyperspeckling, in words (GFP-AR): caused substantial hyperspeckling, comparable to that of R1881
